Data from US11891387B2, “Monoacylglycerol lipase modulators” (Janssen Pharmaceutica NV, priority 2020, dated 2024).

Biological target: human MGL from HeLa cells (Homo sapiens (Human), UniProt Q99685)
Assay: MGL in vitro activity assay: cleavage of [glycerol-1,3-3H]-oleyl glycerol, activated carbon filtration
Format: biochemical
Settings: 300 nM [Glycerol-1,3-3H]-oleyl glycerol, endogenously expressed MGL from HeLa cells, one hour incubation
Procedure: The assay used to measure the in vitro activity of MGL is adapted from the assay used for another serine hydrolase (FAAH) described in Wilson et al., 2003 (A high-throughput-compatible assay for determining the activity of fatty acid amide hydrolase. Wilson S J, Lovenberg T W, Barbier A J. Anal Biochem. 2003 Jul. 15; 318(2):270-5.). The assay consists of combining endogenously expressed MGL from HeLa cells with test compounds, adding [glycerol-1,3-^3H]-oleyl glycerol, incubating for one hour, and then measuring the amount of cleaved [1,3-^3H]-glycerol that passes through an activated carbon filter. The amount of cleaved, tritiated glycerol passing through the carbon filter is proportional to the activity of the MGL enzyme in a particular well/test condition.
Standard conditions for this assay combine 300 nM [Glycerol-1,3-^3H]-oleyl glycerol with human MGL from HeLa cells and test compounds for one hour, after which the reaction is filtered through activated carbon and tritium is measured in the flow through. The test compound concentration in screening mode is 10 μM, while the highest compound concentration in IC50 assays is determined empirically. MGL is the predominant hydrolase in HeLa cells/cell homogenates.

human MGL from HeLa cells, sequence (Q99685 whole entry): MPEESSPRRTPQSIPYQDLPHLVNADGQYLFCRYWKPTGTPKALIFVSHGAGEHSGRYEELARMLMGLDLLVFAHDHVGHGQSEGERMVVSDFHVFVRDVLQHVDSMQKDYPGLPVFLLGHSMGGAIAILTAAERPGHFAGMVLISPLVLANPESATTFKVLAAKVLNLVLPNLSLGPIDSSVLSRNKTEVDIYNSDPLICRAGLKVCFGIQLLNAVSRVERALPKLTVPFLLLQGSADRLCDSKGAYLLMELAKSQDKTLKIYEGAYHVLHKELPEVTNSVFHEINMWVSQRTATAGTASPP

| SMILES | IC50 [nM] |
| --- | --- |
| C[C@H]1c2nn(C)c(-c3cc(C(F)(F)F)nn3C)c2CCN1C(=O)c1nccc2ccccc12 [Example 44, (S)-(2,7-Dimethyl-3-(1-methyl-3-(trifluoromethyl)-1H-pyrazol-5-yl)-2,4,5,7-tetrahydro-6H-pyrazolo[3,4-c]pyridin-6-yl)(isoquinolin-1-yl)methanone] | 19 |
| C[C@H]1c2nn(C)c(-c3cc(C(F)(F)F)nn3C)c2CCN1C(=O)c1cccc2c1ccn2C [Example 45, (S)-(2,7-Dimethyl-3-(1-methyl-3-(trifluoromethyl)-1H-pyrazol-5-yl)-2,4,5,7-tetrahydro-6H-pyrazolo[3,4-c]pyridin-6-yl)(1-methyl-1H-indol-4-yl)methanone] | 1.1 |
| C[C@H]1c2nn(C)c(-c3cc(C(F)(F)F)nn3C)c2CCN1C(=O)c1ccnc2c1ccn2C [Example 46, (S)-(2,7-Dimethyl-3-(1-methyl-3-(trifluoromethyl)-1H-pyrazol-5-yl)-2,4,5,7-tetrahydro-6H-pyrazolo[3,4-c]pyridin-6-yl)(1-methyl-1H-pyrrolo[2,3-b]pyridin-4-yl)methanone] | 5.7 |
| C[C@H]1c2nn(C)c(-c3cc(C(F)(F)F)nn3C)c2CCN1C(=O)c1c(F)cnc2c1ccn2C [Example 47, (S)-(2,7-Dimethyl-3-(1-methyl-3-(trifluoromethyl)-1H-pyrazol-5-yl)-2,4,5,7-tetrahydro-6H-pyrazolo[3,4-c]pyridin-6-yl)(5-fluoro-1-methyl-1H-pyrrolo[2,3-b]pyridin-4-yl)methanone] | 0.67 |
| COc1cccc(C(=O)N2CCc3c(nn(C)c3-c3cc(C(F)(F)F)n(C)n3)[C@@H]2C)c1Cl [Example 48, (S)-(2-Chloro-3-methoxyphenyl)(2,7-dimethyl-3-(1-methyl-5-(trifluoromethyl)-1H-pyrazol-3-yl)-2,4,5,7-tetrahydro-6H-pyrazolo[3,4-c]pyridin-6-yl)methanone] | 19 |
| C[C@H]1c2nn(C)c(-c3cc(C(F)(F)F)n(C)n3)c2CCN1C(=O)c1ccnc2c1ccn2C [Example 49, (S)-(2,7-Dimethyl-3-(1-methyl-5-(trifluoromethyl)-1H-pyrazol-3-yl)-2,4,5,7-tetrahydro-6H-pyrazolo[3,4-c]pyridin-6-yl)(1-methyl-1H-pyrrolo[2,3-b]pyridin-4-yl)methanone] | 3.2 |
| Cc1cc(C(=O)N2CCc3c(nn(C)c3-c3cc(C(F)(F)F)n(C)n3)[C@@H]2C)cc(-n2nccn2)c1 [Example 50, (S)-(2,7-Dimethyl-3-(1-methyl-5-(trifluoromethyl)-1H-pyrazol-3-yl)-2,4,5,7-tetrahydro-6H-pyrazolo[3,4-c]pyridin-6-yl)(3-methyl-5-(2H-1,2,3-triazol-2-yl)phenyl)methanone] | 23 |
| COc1cccc(C(=O)N2CCc3c(nn(C)c3-c3cnn(C)c3C(F)(F)F)[C@@H]2C)c1Cl [Example 51, (S)-(2-Chloro-3-methoxyphenyl)(2,7-dimethyl-3-(1-methyl-5-(trifluoromethyl)-1H-pyrazol-4-yl)-2,4,5,7-tetrahydro-6H-pyrazolo[3,4-c]pyridin-6-yl)methanone] | 890 |
| C[C@H]1c2nn(C)c(-c3cnn(C)c3C(F)(F)F)c2CCN1C(=O)c1ccnc2c1ccn2C [Example 52, (S)-(2,7-Dimethyl-3-(1-methyl-5-(trifluoromethyl)-1H-pyrazol-4-yl)-2,4,5,7-tetrahydro-6H-pyrazolo[3,4-c]pyridin-6-yl)(1-methyl-1H-pyrrolo[2,3-b]pyridin-4-yl)methanone] | 420 |
| Cc1cc(C(=O)N2CCc3c(nn(C)c3-c3cnn(C)c3C(F)(F)F)[C@@H]2C)cc(-n2nccn2)c1 [Example 53, (S)-(2,7-Dimethyl-3-(1-methyl-5-(trifluoromethyl)-1H-pyrazol-4-yl)-2,4,5,7-tetrahydro-6H-pyrazolo[3,4-c]pyridin-6-yl)(3-methyl-5-(2H-1,2,3-triazol-2-yl)phenyl)methanone] | 810 |
| C[C@H]1c2nn(C)c(-c3cc(C(F)(F)F)nn3C)c2CCN1C(=O)c1cccc2c1OCCC2 [Example 54, (S)-Chroman-8-yl(2,7-dimethyl-3-(1-methyl-3-(trifluoromethyl)-1H-pyrazol-5-yl)-2,4,5,7-tetrahydro-6H-pyrazolo[3,4-c]pyridin-6-yl)methanone] | 16 |
| C[C@H]1c2nn(C)c(-c3cc(C(F)(F)F)nn3C)c2CCN1C(=O)c1ccc2c(c1)OCCC2 [Example 55, (S)-Chroman-7-yl(2,7-dimethyl-3-(1-methyl-3-(trifluoromethyl)-1H-pyrazol-5-yl)-2,4,5,7-tetrahydro-6H-pyrazolo[3,4-c]pyridin-6-yl)methanone] | 110 |
| C[C@H]1c2nn(C)c(-c3cc(C(F)(F)F)nn3C)c2CCN1C(=O)c1ccc2ncsc2c1 [Example 56, (S)-Benzo[d]thiazol-6-yl(2,7-dimethyl-3-(1-methyl-3-(trifluoromethyl)-1H-pyrazol-5-yl)-2,4,5,7-tetrahydro-6H-pyrazolo[3,4-c]pyridin-6-yl)methanone] | 26 |
| C[C@H]1c2nn(C)c(-c3cc(C(F)(F)F)nn3C)c2CCN1C(=O)c1cccc2ncsc12 [Example 57, (S)-Benzo[d]thiazol-7-yl(2,7-dimethyl-3-(1-methyl-3-(trifluoromethyl)-1H-pyrazol-5-yl)-2,4,5,7-tetrahydro-6H-pyrazolo[3,4-c]pyridin-6-yl)methanone] | 22 |
| Cc1nc2ccc(C(=O)N3CCc4c(nn(C)c4-c4cc(C(F)(F)F)nn4C)[C@@H]3C)cc2s1 [Example 58, (S)-(2,7-Dimethyl-3-(1-methyl-3-(trifluoromethyl)-1H-pyrazol-5-yl)-2,4,5,7-tetrahydro-6H-pyrazolo[3,4-c]pyridin-6-yl)(2-methylbenzo[d]thiazol-6-yl)methanone] | 55 |
| C[C@H]1c2nn(C)c(-c3cnn(C)c3C(F)(F)F)c2CCN1C(=O)c1ccc2ncsc2c1 [Example 59, (S)-Benzo[d]thiazol-6-yl(2,7-dimethyl-3-(1-methyl-5-(trifluoromethyl)-1H-pyrazol-4-yl)-2,4,5,7-tetrahydro-6H-pyrazolo[3,4-c]pyridin-6-yl)methanone] | 2960 |
| COc1nccc(C(=O)N2CCc3c(nn(C)c3-c3cnn(C)c3C(F)(F)F)[C@@H]2C)c1C [Example 60, (S)-(2,7-Dimethyl-3-(1-methyl-5-(trifluoromethyl)-1H-pyrazol-4-yl)-2,4,5,7-tetrahydro-6H-pyrazolo[3,4-c]pyridin-6-yl)(2-methoxy-3-methylpyridin-4-yl)methanone] | 4250 |

Further lines, results first:

| IC50 [nM] | SMILES |
| --- | --- |
| 7180 | C[C@H]1c2nn(C)c(-c3cn(C)nc3C(F)(F)F)c2CCN1C(=O)c1ccc2c(c1)OCCC2 [Example 61, (S)-Chroman-7-yl(2,7-dimethyl-3-(1-methyl-3-(trifluoromethyl)-1H-pyrazol-4-yl)-2,4,5,7-tetrahydro-6H-pyrazolo[3,4-c]pyridin-6-yl)methanone] |
| 1940 | C[C@H]1c2nn(C)c(-c3cnn(C)c3)c2CCN1C(=O)c1ccc2ncccc2c1 [Example 62, (S)-(2,7-Dimethyl-3-(1-methyl-1H-pyrazol-4-yl)-2,4,5,7-tetrahydro-6H-pyrazolo[3,4-c]pyridin-6-yl)(quinolin-6-yl)methanone] |
| 63 | C[C@H]1c2nn(C)c(-c3cc(C(F)(F)F)n(C)n3)c2CCN1C(=O)c1ccc2ncccc2c1 [Example 63, (S)-(2,7-Dimethyl-3-(1-methyl-5-(trifluoromethyl)-1H-pyrazol-3-yl)-2,4,5,7-tetrahydro-6H-pyrazolo[3,4-c]pyridin-6-yl)(quinolin-6-yl)methanone] |
| 79 | C[C@H]1c2nn(C)c(-c3cnn(C(F)(F)F)c3)c2CCN1C(=O)c1ccc2ncccc2c1 [Example 64, (S)-(2,7-Dimethyl-3-(1-(trifluoromethyl)-1H-pyrazol-4-yl)-2,4,5,7-tetrahydro-6H-pyrazolo[3,4-c]pyridin-6-yl)(quinolin-6-yl)methanone] |
| 39 | C[C@H]1c2nn(C)c(-c3cc(C(F)(F)F)nn3C)c2CCN1C(=O)c1ccc2ncccc2c1 [Example 65, (S)-(2,7-Dimethyl-3-(1-methyl-3-(trifluoromethyl)-1H-pyrazol-5-yl)-2,4,5,7-tetrahydro-6H-pyrazolo[3,4-c]pyridin-6-yl)(quinolin-6-yl)methanone] |
| 4000 | CCn1ccc(-c2c3c(nn2C)[C@H](C)N(C(=O)c2ccc4ncccc4c2)CC3)n1 [Example 66, (S)-(3-(1-Ethyl-1H-pyrazol-3-yl)-2,7-dimethyl-2,4,5,7-tetrahydro-6H-pyrazolo[3,4-c]pyridin-6-yl)(quinolin-6-yl)methanone] |
| 1340 | C[C@H]1c2nn(C)c(-c3ccn(C(F)F)n3)c2CCN1C(=O)c1ccc2ncccc2c1 [Example 67, (S)-(3-(1-(Difluoromethyl)-1H-pyrazol-3-yl)-2,7-dimethyl-2,4,5,7-tetrahydro-6H-pyrazolo[3,4-c]pyridin-6-yl)(quinolin-6-yl)methanone] |
| 4200 | C[C@H]1c2nn(C)c(-c3ccnn3C3CC3)c2CCN1C(=O)c1ccc2ncccc2c1 [Example 68, (S)-(3-(1-Cyclopropyl-1H-pyrazol-5-yl)-2,7-dimethyl-2,4,5,7-tetrahydro-6H-pyrazolo[3,4-c]pyridin-6-yl)(quinolin-6-yl)methanone] |
| 89 | C[C@H]1c2nn(C)c(-c3cnn(C(F)F)c3)c2CCN1C(=O)c1ccc2ncccc2c1 [Example 69, (S)-(3-(1-(Difluoromethyl)-1H-pyrazol-4-yl)-2,7-dimethyl-2,4,5,7-tetrahydro-6H-pyrazolo[3,4-c]pyridin-6-yl)(quinolin-6-yl)methanone] |
